Results on 5 compounds are retold here after publication PMC6367500, “18β-glycyrrhetyl-3-O-sulfate would be a causative agent of licorice-induced pseudoaldosteronism” (Scientific Reports, 2019).

Data set [1] is described as follows: Concentrations of GL metabolites in plasma of a patient with pseudoaldosteronism (LC-MS/MS). The data set is classed as in vivo, human. Particulars: for plasma concentration, day 0 / concentration at 0 day: patient with licorice-induced pseudoaldosteronism, day 0; for plasma concentration, day 5 / concentration at 5 day: 5 days after stopping the Kampo formula; for concentration at 0 day: female; for concentration at 13 day: day 13. An excerpt: The patient was a person who had taken a Kampo formula containing licorice for 3 years (1.5 g of licorice for 1 year and 2 months, and 3 g for 1 year and 10 months). On day 0, we found a low plasma potassium level (2.1 mEq/l) and a high creatinine kinase level (364 U/l). Since low plasma renin activity and a low aldosterone level were also found, the patient was diagnosed with pseudoaldosteronism due to licorice. The administration of the Kampo formula was stopped and potassium supplementation of up to 100 mEq/day was started. In the plasma collected on day 0, we detected compound 3 at 8.6 µM, GA at 1.3 µM, and 2 at 87 nM, while 1, GL and 3MGA were not detected. On day 5, the plasma potassium level was still 2.1 mEq/l and potassium supplementation was continued. However, the plasma concentrations of 3 and GA had decreased to 3.6 µM and 0.65 µM, respectively. 2, 1, GL, and 3MGA were not detected. On day 13, the plasma potassium level was increased to 2.8 mEq/l, and the concentrations of 3 and GA were 61 nM and 11 nM, respectively. On day 14, the plasma potassium level was 3.4 mEq/l, and the concentration of 3 was 57 nM; GA was not detected. On day 18, the plasma potassium level had recovered to a normal level (4.9 mEq/l), so potassium supplementation was stopped.
Female SD rats or EHBRs (9-week-old) were anesthetized by an intraperitoneal (i.p.) injection of urethane (1 g/kg) and their jugular veins were exposed. GA suspended in 0.5% CMC was then administered orally (200 mg/kg) to the unconscious rats, and blood samples were collected from the jugular vein; urine samples were collected using a metabolic cage at an appropriate time over a 12-h period. […] Feces were homogenized in phosphate-buffered saline (PBS; 0.15 M, pH 7.2), centrifuged (1.2 × 10^4 g, 10 min), and the supernatants were collected. After 1 week as a washout period, female SD rats were anesthetized by an i.p. injection of urethane (1 g/kg) and their biliary tract was cannulated. GA (0.2 mg/kg) was injected into the jugular vein, and the bile was collected every hour for 4 h. Aliquots (10 µl) of plasma, urine, homogenate of feces, or bile were mixed with 20 µl of subtilisin (0.91 U/ml) and incubated at 37 °C for 30 min, followed by the addition of 70 µl of astragaloside IV solution (1 µg/ml in ethanol containing 0.5% formic acid, used as internal standard), and kept at −20 °C for 30 min. […] The transitions (precursor to daughter) monitored and retention times were as follows: ESI(+) 743.4 to 567.5 m/z for compound 1 (5.5 min), ESI(−) 565.5 to 96.5 m/z for 2 (6.2 min), ESI(−) 549.5 to 96.5 m/z for 3 (8.1 min), ESI(+) 647.6 to 453.6 m/z for 3MGA (9.2 min), ESI(+) 471.3 to 91.0 m/z for GA (8.8 min), ESI(+) 823.5 to 453.6 m/z for GL (10.8 min), and ESI(+) 785.4 to 143.0 m/z for astragaloside IV (3.0 min). Linear regressions over the concentration range of 32 nM to 20 µM for each compound were examined using the peak-area ratio of the compounds to their internal standards and the least-squares method (r^2 > 0.98).
The patient was a person. They provided written informed consent to the use of their blood and urine samples for this study, which was approved by the Independent Ethics Committee of Kameda General Hospital, in accordance with the Declaration of Helsinki. Their anamnesis was follows: hypertension, systemic lupus erythematosus, and antiphospholipid antibody syndrome (for 15 years), necrotic pulmonary aspergillosis (6 years ago), cerebral infarction (14 and 4 years ago, two times), and stomach cancer (3 years ago). After the operation for stomach cancer, the patient had been treated with Kracie Juzentaihoto Extract Granules for Ethical Use (Kracie Pharmaceuticals., Tokyo, Japan). […]

The subject of the next data set is anti-3MGA-mAb. Nature of the data set: Dot-blot analysis using anti-3MGA-mAb. The data set is classed as binding. Particulars: 1 µg spotted on PES membrane, imaging analysis. On the procedure: We confirmed the cross-reactivity of anti-3MGA-mAb against these GL metabolites. GL, GA, 3MGA, and compounds 1, 2, and 3 (1 µg each) were spotted on a polyethersulfone (PES) membrane, fixed onto the membrane, and colored using an anti-3MGA-mAb (Fig. 5A). […] Thus, the anti-3MGA-mAb cross-reacted to some extent with other metabolites of GL.
Figure 5 Dot-blot analysis and ELISA detection range of GL metabolites using anti-3MGA-monoclonal antibody (mAb). GL metabolites (1 µg each) were spotted on a PES membrane, and colored using an anti-3MGA-mAb (A). Competitive ELISA using anti-3MGA-mAb for GL metabolites was performed. Data are represented from a single analysis (n = 1) (B). […] Data are represented as mean ± S.D. (n = 3). Two-way ANOVA indicated a significant difference between GA and 3 (F1,36 = 4441, P < 0.001), concentrations (F8,36 = 315, P < 0.001), and their interactions (F8,36 = 281, P < 0.001). The calibrated line for the absorbance-concentration profile of 3 was calculated by the linear least-squares method, and the regression formula is shown in graph (C).
Anti-3MGA-mAb and 3MGA-human serum albumin (HSA)-conjugate were developed by the same protocols established in our previous studies[22],[23]. GL, GA, 3MGA, 1, 2, and 3 (1 µg each) were spotted on a Mustang^TM E positively charged PES membrane (Pall Co., East Hills, NY, USA). The membrane was then immersed into 0.1 M MES buffer (pH 4.7) containing 2% EDC and 1% NHS, and kept at room temperature for 1 h to activate the carboxyl group. After washing with distilled water, PBS containing 1% bovine serum albumin (BSA) was added to the membrane, which was shaken at room temperature for 2 h for fixation. Next, the membrane was blocked with PBS containing 5% skim milk (Morinaga-milk, Tokyo, Japan) and 0.1% Tween 20 at 4 °C overnight to reduce nonspecific adsorption. After washing twice with PBS containing 0.1% Tween 20 (T-PBS) for 5 min, the membrane was incubated with anti-3MGA-mAb and kept at room temperature for 3 h with constant agitation. The membrane was then washed twice with T-PBS for 5 min and treated with 1:500 diluted horseradish peroxidase (HRP)-labeled goat anti-mouse IgG (whole molecule; Sigma, St. Louis, MO, USA) antibody in T-PBS for 1 h with gentle shaking. Finally, the membrane was washed twice with T-PBS and once with PBS, and exposed to 1 mg/ml of freshly prepared 4-chloro-1-naphthol-0.03% H2O2 in PBS for 15 min at room temperature. The reaction was stopped by washing with distilled water, and the immunostained PES membrane was allowed to dry and then photographed. The positively stained areas were measured using Image J 1.46r (http://imageJ.nih.gov/ij).

With `CC1(C)[C@@H](O[C@@H]2O[C@H](C(=O)O)[C@@H](O)[C@H](O)[C@H]2O)CC[C@]2(C)[C@H]3C(=O)C=C4[C@@H]5C[C@@](C)(C(=O)O)CC[C@]5(C)CC[C@@]4(C)[C@]3(C)CC[C@@H]12` [3MGA, 3-monoglucuronyl glycyrrhetinic acid, reference compound], the “plasma concentration (below detection limit)” value in data set [1] (patient plasma sample, LC-MS/MS detection limit) is “less than 3.2 nM”. Moreover, the “plasma concentration, day 0” value in data set [1] is recorded as “not detected”. Besides, in data set [1] (patient), the “plasma concentration, day 5” value is recorded as “not detected”. The “area of positive staining in dot-blot” value with anti-3MGA-mAb was 3395 pixels.
As for `CC1(C)[C@@H](OS(=O)(=O)O)CC[C@]2(C)[C@H]3C(=O)C=C4[C@@H]5C[C@@](C)(C(=O)O)C[C@H](O)[C@]5(C)CC[C@@]4(C)[C@]3(C)CC[C@@H]12` [compound 2, 22α-hydroxy-18β-glycyrrhetyl-3-O-sulfate], the concentration at 0 day in data set [1] (human, plasma, oral) was 87 nM. Moreover, in data set [1] (patient), the “plasma concentration, day 5” value is on record as “not detected”. For the same compound, the “area of positive staining in dot-blot” value with anti-3MGA-mAb was determined as 79 pixels.
Consider `CC1(C)[C@@H](OS(=O)(=O)O)CC[C@]2(C)[C@H]3C(=O)C=C4[C@@H]5C[C@@](C)(C(=O)O)CC[C@]5(C)CC[C@@]4(C)[C@]3(C)CC[C@@H]12` [compound 3, 18β-glycyrrhetyl-3-O-sulfate], for which the concentration at 0 day in data set [1] (human, plasma, oral) amounted to 8600 nM. Also, in data set [1] (human, plasma, oral, patient), the concentration at 5 day was 3600 nM and the concentration at 13 day worked out at 61 nM. The concentration at 14 day in data set [1] (human, plasma, oral, patient, day 14) came to 57 nM. The “plasma concentration, day 18” value in data set [1] (patient, day 18) is listed as “below the detectable limit”. Besides, in the data set on anti-3MGA-mAb, the “area of positive staining in dot-blot” value amounted to 146 pixels.
`CC1(C)[C@@H](OS(=O)(=O)O)CC[C@]2(C)[C@H]3C(=O)C=C4[C@@H]5C[C@@](C)(C(=O)O[C@@H]6O[C@H](C(=O)O)[C@@H](O)[C@H](O)[C@H]6O)C[C@H](O)[C@]5(C)CC[C@@]4(C)[C@]3(C)CC[C@@H]12` [compound 1, 22α-hydroxy-18β-glycyrrhetyl-3-O-sulfate-30-glucuronide]: the “plasma concentration, day 0” value in data set [1] was “not detected”. Also, in data set [1] (patient), the “plasma concentration, day 5” value is “not detected”. Further, the “area of positive staining in dot-blot” value in the data set with anti-3MGA-mAb is recorded as 606 pixels.
With `CC1(C)[C@@H](O)CC[C@]2(C)[C@H]3C(=O)C=C4[C@@H]5C[C@@](C)(C(=O)O)CC[C@]5(C)CC[C@@]4(C)[C@]3(C)CC[C@@H]12` [GA, glycyrrhetinic acid, reference compound], the concentration at 0 day in data set [1] (human, plasma, oral) came to 1300 nM. Besides, in data set [1] (human, plasma, oral, patient), the concentration at 5 day stood at 650 nM and the concentration at 13 day was found to be 11 nM. The “plasma concentration, day 14” value in data set [1] (patient, day 14) is listed as “not detected”. The “area of positive staining in dot-blot” value in the data set on anti-3MGA-mAb is listed as 97 pixels.
